Assay results from PubChem BioAssay (NCI).
“And” between values parts separate entries of the source, which are not always exact repeats. Identical values can stand only once.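 Growth conditions: 96-well plates. Treatment: test compound, 48 hours, 5 concentrations. Analysis: linear interpolation between bracketing concentrations; unreached endpoints set to highest concentration. Abbreviation: GI50, concentration required for 50% inhibition of growth. TGI denotes the concentration required for complete inhibition of growth.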

Columns and labels:
Experiment in all cases: DTP human tumour cell line panel, 48 h
HCT-116 colon = tested on: HCT-116 colon
NCI-H522 lung = tested on: NCI-H522 lung
NCI-H460 lung = tested on: NCI-H460 lung
HT29 colon = tested on: HT29 colon
HOP-92 NSCLC = tested on: HOP-92 NSCLC
SK-MEL-2 melanoma = tested on: SK-MEL-2 melanoma
UACC-257 melanoma = tested on: UACC-257 melanoma
HOP-62 NSCLC = tested on: HOP-62 NSCLC
MALME-3M melanoma = tested on: MALME-3M melanoma
OVCAR-5 ovarian = tested on: OVCAR-5 ovarian

Row | SMILES | GI50 (HCT-116 colon) | TGI (HCT-116 colon) | GI50 (NCI-H522 lung) | TGI (NCI-H522 lung) | GI50 (NCI-H460 lung) | TGI (NCI-H460 lung) | GI50 (HT29 colon) | TGI (HT29 colon) | GI50 (HOP-92 NSCLC) | TGI (HOP-92 NSCLC) | GI50 (SK-MEL-2 melanoma) | TGI (SK-MEL-2 melanoma) | GI50 (UACC-257 melanoma) | TGI (UACC-257 melanoma) | GI50 (HOP-62 NSCLC) | TGI (HOP-62 NSCLC) | GI50 (MALME-3M melanoma) | TGI (MALME-3M melanoma) | GI50 (OVCAR-5 ovarian) | TGI (OVCAR-5 ovarian)
1 | COc1ccc(Cl)c(Nc2nc3ccccc3nc2NS(=O)(=O)c2cccc(NC(=O)C(C)(C)N)c2)c1 | 12.8 µM and > 10 µM | 25.8 µM and > 10 µM | 14.7 µM and > 10 µM | 30.5 µM and > 10 µM | 6.51 µM and 4.52 µM | 20.8 µM and > 10 µM | 9.87 µM and 6.23 µM | 25.9 µM and > 10 µM | 1.57 µM and 0.358 µM | 9.94 µM and 5.42 µM | 14.9 µM and > 10 µM | 32.1 µM and > 10 µM | 12.1 µM and > 10 µM | 25.1 µM and > 10 µM | 4.66 µM and > 10 µM | 20 µM and > 10 µM | 10.2 µM and > 10 µM | 24.9 µM and > 10 µM | 4.76 µM and > 10 µM | 22.5 µM and > 10 µM
2 | N#CSCc1ccc(Cl)c(CSC#N)c1 | 0.0379 µM | 14.8 µM | 0.0816 µM | 9.06 µM | 0.807 µM | 12.6 µM | 0.0423 µM | > 37.6 µM | 0.25 µM | 6.51 µM | 16.2 µM | 73 µM | 15 µM | 50.2 µM | 7.25 µM | > 66.9 µM | 9.8 µM | 37.8 µM | 1.77 µM | 24.5 µM
3 | CC1=C(CCC(C)NCc2ccc(OCCCN3CCCCC3)cc2)C(C)(C)CCC1 (stereo not given) | 1.53 µM | 3.13 µM | 1.45 µM | 3.21 µM | 1.53 µM | 3.28 µM | 0.384 µM | 1.38 µM | 1.26 µM | 2.72 µM | 1.49 µM | 3.08 µM | 2.2 µM | 4.03 µM | 1.84 µM | 3.64 µM | 1.6 µM | 3.29 µM | 1.91 µM | 4.11 µM
4 | NC(=O)c1ccc(-c2nc(-c3ccc4c(c3)OCO4)c(-c3ccccn3)[nH]2)cc1 | > 25 µM and 30.4 µM | > 100 µM | > 25 µM and 22.3 µM | > 25 µM and 72.5 µM | > 25 µM and 23.3 µM | > 84.7 µM | > 25 µM and 28.3 µM | > 93.8 µM | > 25 µM and 11.4 µM | > 84.6 µM | > 25 µM and 35.8 µM | > 100 µM | > 64.3 µM | > 100 µM | > 25 µM and 43 µM | > 100 µM | > 25 µM and 38.2 µM | > 100 µM | > 25 µM and 32 µM | > 100 µM
5 | O=C(NC(=Nc1ccccc1)SCCSC(=Nc1ccccc1)NC(=O)c1cccs1)c1cccs1 | – | > 100 µM | – | 63.6 µM | – | > 100 µM | – | > 100 µM | – | 46.1 µM | – | > 100 µM | – | > 100 µM | – | > 100 µM | – | > 100 µM | – | > 100 µM
6 | OCCn1cnc2c(SCc3ccccc3)ncnc21 | – | > 100 µM | – | > 100 µM | – | > 100 µM | – | > 100 µM | – | > 100 µM | – | > 100 µM | – | > 100 µM | – | > 100 µM | – | > 100 µM | – | > 100 µM
7 | COc1ccc(COC2CC(OC)OC(C)C2OC(=O)c2ccccc2)cc1 (stereo not given) | – | > 84 µM | – | > 93.5 µM | – | > 100 µM | – | 39.6 µM | – | > 100 µM | – | > 100 µM | – | > 100 µM | – | > 100 µM | – | > 71.3 µM | – | > 94.7 µM
8 | Nc1c(C(=O)c2cccc(-c3cccnc3)c2)cnn1-c1ccc(F)cc1F | 2.87 µM | > 25 µM | 1.57 µM | > 15 µM | 1.52 µM | > 25 µM | 1.05 µM | > 25 µM | 1.94 µM | 17.4 µM | 3.87 µM | > 18.4 µM | 6.28 µM | > 25 µM | 5.49 µM | > 25 µM | 2.26 µM | > 20.9 µM | > 19.6 µM | > 25 µM
9 | CN(C)c1ccc(C(=NO)c2ccc(N(C)C)cc2)cc1 | 2.53 µM | > 100 µM | 1.08 µM | > 100 µM | 3.23 µM | > 100 µM | 3.6 µM | > 100 µM | 15.2 µM | > 100 µM | 3.57 µM | > 100 µM | 5.12 µM | > 100 µM | 6.1 µM | > 100 µM | 2.63 µM | > 100 µM | 15.1 µM | > 100 µM
10 | COC(=N)c1c(N)[n+]([O-])c2ccc(F)cc2[n+]1[O-] | > 100 µM | > 100 µM | 54.7 µM | > 100 µM | 58.1 µM | > 100 µM | > 100 µM | > 100 µM | 78.8 µM | > 100 µM | > 100 µM | > 100 µM | > 100 µM | > 100 µM | > 100 µM | > 100 µM | 66.3 µM | > 100 µM | > 100 µM | > 100 µM
11 | Cc1ccc(-c2nc3nc(-c4ccccc4)nc(N4CCNCC4)c3o2)cc1 | 0.185 µM | 0.337 µM | 0.745 µM | 2.26 µM | 0.226 µM | 0.503 µM | 0.242 µM | 0.567 µM | 1.48 µM | 3.13 µM | 1.86 µM | 3.64 µM | 1.98 µM | 3.8 µM | 1.48 µM | 2.98 µM | 1.81 µM | 3.59 µM | 1.31 µM | 2.74 µM
12 | Cn1cccc1-c1cc(-c2ccc(Br)cc2)[nH]c(=O)c1C#N | > 100 µM | > 100 µM | 82.1 µM | > 100 µM | > 100 µM | > 100 µM | > 100 µM | > 100 µM | 27.8 µM | > 100 µM | > 100 µM | > 100 µM | > 100 µM | > 100 µM | > 100 µM | > 100 µM | > 100 µM | > 100 µM | > 100 µM | > 100 µM
13 | COC(=O)Nc1nc2ccc(Oc3cccc(NC(=O)Nc4cc(C(F)(F)F)ccc4F)c3)cc2[nH]1 | 7.71 µM | > 25 µM | 5.73 µM | 20.6 µM | 11.4 µM | > 25 µM | 9.11 µM | > 25 µM | 2.94 µM | > 22.2 µM | 5.28 µM | 19.5 µM | > 23.7 µM | > 25 µM | 13.3 µM | > 25 µM | 6.04 µM | > 25 µM | > 22.5 µM | > 25 µM
